Assays:
human recombinant HDAC1 = molecular target: T1, human recombinant HDAC1 (Homo sapiens, UniProt Q13547); assay: HDAC1 enzyme activity inhibition (HDAC1 Fluorimetric Drug Discovery Assay Kit, in vitro); assay type: biochemical; conditions: samples at 100, 1000 and 10000 nM
T1 construct: purchased Enzolifesciences BML-SE456
Summary of the method: (§1)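 Recombinant human HDAC1 or HDAC6 (0.3 μg) with Fluor de Lys-SIRT1 substrate at […], 60 min at 37 °C, then developer 30 min; fluorescence Ex 360/Em 460. Compounds at 100–10000 nM for HDAC1 and 0.1–1000 nM for HDAC6; IC50 calculated.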

human recombinant HDAC6 = molecular target: T2, human recombinant HDAC6 (Homo sapiens, UniProt Q9UBN7); assay: HDAC6 enzyme activity inhibition (fluorimetric, in vitro); assay type: biochemical; conditions: samples at 0.1, 1, 10, 100 and 1000 nM
T2 construct: purchased Calbiochem 382180
T2 sequence (Q9UBN7 1-1215): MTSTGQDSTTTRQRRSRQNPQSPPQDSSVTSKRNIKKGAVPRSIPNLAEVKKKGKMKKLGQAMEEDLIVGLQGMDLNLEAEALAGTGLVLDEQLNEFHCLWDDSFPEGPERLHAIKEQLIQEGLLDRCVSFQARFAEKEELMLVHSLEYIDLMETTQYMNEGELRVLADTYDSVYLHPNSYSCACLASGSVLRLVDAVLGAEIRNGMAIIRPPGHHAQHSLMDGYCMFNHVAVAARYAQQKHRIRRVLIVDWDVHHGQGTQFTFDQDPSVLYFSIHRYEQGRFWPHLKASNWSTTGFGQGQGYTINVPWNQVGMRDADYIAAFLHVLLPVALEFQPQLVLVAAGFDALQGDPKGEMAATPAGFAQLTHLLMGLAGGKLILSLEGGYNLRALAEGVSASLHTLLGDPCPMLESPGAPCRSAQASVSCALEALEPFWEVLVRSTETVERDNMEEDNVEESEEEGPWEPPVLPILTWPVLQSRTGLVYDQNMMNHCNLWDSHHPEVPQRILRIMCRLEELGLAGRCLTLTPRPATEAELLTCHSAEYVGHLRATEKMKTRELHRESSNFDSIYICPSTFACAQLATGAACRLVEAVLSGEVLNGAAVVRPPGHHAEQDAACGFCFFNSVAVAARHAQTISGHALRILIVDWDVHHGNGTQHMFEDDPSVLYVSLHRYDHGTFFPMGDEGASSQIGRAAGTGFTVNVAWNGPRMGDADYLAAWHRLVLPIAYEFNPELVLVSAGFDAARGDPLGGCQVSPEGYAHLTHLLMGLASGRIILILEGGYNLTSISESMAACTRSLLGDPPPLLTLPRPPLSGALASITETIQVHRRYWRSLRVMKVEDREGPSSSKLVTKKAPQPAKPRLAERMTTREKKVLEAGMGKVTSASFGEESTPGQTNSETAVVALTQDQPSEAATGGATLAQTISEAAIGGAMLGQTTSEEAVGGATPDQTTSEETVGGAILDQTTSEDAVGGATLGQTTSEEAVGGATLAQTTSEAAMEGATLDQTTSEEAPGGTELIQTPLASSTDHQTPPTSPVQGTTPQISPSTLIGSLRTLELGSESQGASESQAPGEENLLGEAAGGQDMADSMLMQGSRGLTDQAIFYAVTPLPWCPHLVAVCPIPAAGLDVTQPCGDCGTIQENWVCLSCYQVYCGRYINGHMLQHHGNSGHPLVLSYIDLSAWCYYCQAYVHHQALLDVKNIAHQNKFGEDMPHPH
Summary of the method: as §1

T1 sequence (Q13547 whole entry): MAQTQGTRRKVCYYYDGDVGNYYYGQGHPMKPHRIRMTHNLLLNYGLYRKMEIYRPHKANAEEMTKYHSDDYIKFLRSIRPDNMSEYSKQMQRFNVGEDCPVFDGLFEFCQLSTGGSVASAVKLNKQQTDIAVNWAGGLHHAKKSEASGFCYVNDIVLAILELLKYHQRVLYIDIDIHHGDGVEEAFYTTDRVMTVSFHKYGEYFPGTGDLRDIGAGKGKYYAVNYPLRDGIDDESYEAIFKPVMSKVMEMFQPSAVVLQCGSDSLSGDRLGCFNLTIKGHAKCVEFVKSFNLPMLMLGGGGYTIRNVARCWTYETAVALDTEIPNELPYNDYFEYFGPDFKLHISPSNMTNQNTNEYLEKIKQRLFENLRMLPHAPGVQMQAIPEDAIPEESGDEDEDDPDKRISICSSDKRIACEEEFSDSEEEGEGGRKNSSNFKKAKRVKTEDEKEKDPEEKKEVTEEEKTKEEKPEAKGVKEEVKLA

IC50 (human recombinant HDAC1) [µM]	IC50 (human recombinant HDAC6) [µM]	SMILES
> 10	0.0848	CC(=O)N=S1(=O)CCN(C(=O)N(Cc2ccc(-c3nnc(C(F)F)o3)cc2F)c2ccccc2)CC1 [Compound 40, 1-(acetylimino)-N-(4-(5-(difluoromethyl)-1,3,4-oxadiazol-2-yl)-2-fluorobenzyl)-N-phenylthiomorpholin-4-carboxamide 1-oxide]
> 10	0.0272	N=S1(=O)CCN(C(=O)N(Cc2ccc(-c3nnc(C(F)F)o3)cn2)c2cccc(F)c2)CC1 [Compound 17]
> 10	0.0914	N=S1(=O)CCN(C(=O)N(Cc2ccc(-c3nnc(C(F)F)o3)cc2F)c2cccc(C(F)(F)F)c2)CC1 [Compound 31, N-(4-(5-(difluoromethyl)-1,3,4-oxadiazol-2-y1)-2-fluorobenzyl)-1-imino-N-(3-(trifluoromethyl)phenyl)thiomorpholin-4-carboxamide 1-oxide]
> 10	0.0746	CC1CN(C(=O)N(Cc2ccc(-c3nnc(C(F)F)o3)cn2)c2ccccc2)CCS1(=N)=O (stereo not drawn) [Compound 85, N-[[5-[5-(difluoromethyl)-1,3,4-oxadiazol-2-yl]-2-pyridyl]methyl]-1-imino-2-methyl-1-oxo-N-phenyl-1,4-thiazinan-4-carboxamide]
> 10	0.145	N=S1(=O)CCN(C(=O)N(Cc2ccc(-c3nnc(C(F)F)o3)nn2)c2cccc(F)c2)CC1 [Compound 80, N-[[6-[5-(difluoromethyl)-1,3,4-oxadiazol-2-yl]pyridazin-3-yl]methyl]-N-(3-fluorophenyl)-1-imino-1-oxo-1,4-thiazinan-4-carboxamide]
> 10	0.294	N=S1(=O)CCN(C(=O)N(Cc2ccc(-c3nnc(C(F)F)o3)cc2F)c2ccc(SC(F)(F)F)cc2)CC1 [Compound 21, N-(4-(5-(difluoromethyl)-1,3,4-oxadiazol-2-y1)-2-fluorobenzyl)-1-imino-N-(4-((trifluoromethyl)thio)phenyl)thiomorpholin-4-carboxamide 1-oxide]
> 10	0.0767	N=S1(=O)CCN(C(=O)N(Cc2ccc(-c3nnc(C(F)F)o3)cc2F)c2ccc(Br)cc2)CC1 [Compound 20, N-(4-bromophenyl)-N-(4-(5-(difluoromethyl)-1,3,4-oxadiazol-2-yl)-2-fluorobenzyl)-1-iminothiomorpholin-4-carboxamide 1-oxide]
> 10	0.0889	N=S1(=O)CCN(C(=O)N(Cc2ccc(-c3nnc(C(F)F)o3)cc2F)c2cccc(-c3cncs3)c2)CC1 [Compound 43, N-(4-(5-(difluoromethyl)-1,3,4-oxadiazol-2-yl)-2-fluorobenzyl)-1-imino-N-(3-(thiazole-5-yl)phenyl)thiomorpholin-4-carboxamide 1-oxide]
> 10	0.0659	N=S1(=O)CCN(C(=O)N(Cc2ncc(-c3nnc(C(F)F)o3)cc2F)c2cc(F)ccc2F)CC1 [Compound 46, N-((5-(5-(difluoromethyl)-1,3,4-oxadiazol-2-yl)-3-fluoropyridin-2-yl)methyl)-N-(2,5-difluorophenyl)-1-iminothiomorpholin-4-carboxamide 1-oxide]
> 10	0.13	N=S1(=O)CCN(C(=O)N(Cc2ccc(-c3nnc(C(F)F)o3)cn2)c2ccccc2F)CC1 [Compound 57]
> 10	0.113	N=S1(=O)CCC(N2C[C@@H]3C[C@H]2CN3C(=O)N(Cc2ccc(-c3nnc(C(F)F)o3)cn2)c2ccccc2F)CC1 (stereo partly drawn) [Compound 48, (1S,4S)—N-((5-(5-(difluoromethyl)-1,3,4-oxadiazol-2-yl)pyridin-2-yl)methyl)-N-(2-fluorophenyl)-5-(1-imino-1-oxidotetrahydro-2H-thiopyran-4-yl)-2,5-diazabicyclo[2.2.1]heptan-2-carboxamide]
> 10	0.151	N=S1(=O)CCN(C(=O)N(Cc2ccc(-c3nnc(C(F)F)o3)cn2)c2ccccc2)CC1 [Compound 3, N-((5-(5-(difluoromethyl)-1,3,4-oxadiazol-2-yl)pyridin-2-yl)methyl)-1-imino-N-phenylthiomorpholin-4-carboxamide 1-oxide]

From patent publication US20260125370A1, “SULFOXIMINE COMPOUNDS AS HISTONE DEACETYLASE 6 INHIBITOR, AND PHARMACEUTICAL COMPOSITION COMPRISING THE SAME” (CHONG KUN DANG PHARMACEUTICAL CORP., priority 2022, published 2026)
